From EP4722209A1 (Beijing Shenogen Pharma Group, priority 2023, dated 2024)

molecular target: T1, ERα (Homo sapiens, UniProt P03372); assay: ER degradation activity in MCF-7 cells (Western blot, grayscale intensity); assay type: cell-based; conditions: 6 hours treatment, 1 nM to 100 nM, concentration required to degrade 50% of the target protein
T1 construct: host or cells: MCF-7
T1 sequence (P03372 1-595): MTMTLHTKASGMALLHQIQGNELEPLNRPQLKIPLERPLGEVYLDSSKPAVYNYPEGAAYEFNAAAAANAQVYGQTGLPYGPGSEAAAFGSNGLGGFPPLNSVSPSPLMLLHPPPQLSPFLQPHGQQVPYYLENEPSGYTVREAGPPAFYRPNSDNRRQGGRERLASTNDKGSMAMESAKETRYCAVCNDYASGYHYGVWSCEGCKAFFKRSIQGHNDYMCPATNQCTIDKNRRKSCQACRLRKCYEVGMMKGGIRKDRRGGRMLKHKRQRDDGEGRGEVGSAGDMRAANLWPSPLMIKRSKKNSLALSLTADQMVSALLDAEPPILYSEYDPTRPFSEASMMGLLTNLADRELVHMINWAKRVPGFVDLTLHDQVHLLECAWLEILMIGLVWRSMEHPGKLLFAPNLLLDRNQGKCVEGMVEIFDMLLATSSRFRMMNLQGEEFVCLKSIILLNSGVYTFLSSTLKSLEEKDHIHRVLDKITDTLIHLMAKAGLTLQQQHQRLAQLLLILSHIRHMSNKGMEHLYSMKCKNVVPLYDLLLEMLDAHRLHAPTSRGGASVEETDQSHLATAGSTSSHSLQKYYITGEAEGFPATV
Procedure: ERα-positive human breast cancer cells MCF-7 (ATCC, HTB-22) were cultured with EMEM medium (ATCC, catalog number 30-2003) containing 10% fetal bovine serum (Thermo Fisher, catalog number 10099141) and 10 µg/mL bovine insulin in 25 cm^2 or 75 cm^2 plastic tissue culture flasks in a 37 °C incubator with 5% CO2. The cells were passaged 2 to 3 times per week. MCF-7 cells were seeded in 6-well plate at 1×10^6 cells/well with 1.8 mL culture medium per well, and cultured in a 37 °C incubator with 95% air and 5% CO2. After 24 hours, the test compounds were added: the compounds were serially diluted 10-fold in DMSO starting from 10 mM (dissolved in DMSO) to prepare gradient stock solutions. A complete culture medium containing 1% DMSO was prepared for further dilution, temporarily named as the "dilution buffer." Working solutions were prepared by diluting each stock solution with 99 times the volume of dilution buffer, that is, by adding 1 µL of the 10 mM stock solution to 99 µL of the dilution buffer and mixing thoroughly.
Finally, […] of the working solution was added to the cell-seeded culture plate. The final concentration of DMSO in the cell culture medium was 0.2%, and the final concentration of the test compounds ranged from 1 nM to 100 nM. The cells were then incubated at 37 °C for 6 hours.
The culture medium was removed, and the cells were washed twice with ice cold PBS. 1 mL of PBS was added to each well, and the cells were collected into EP tubes using a cell scraper, and centrifuged at 4 °C, 4000 rpm for 5 minutes. PBS was aspirated. Total protein was extracted using the Minute™ Mammalian Tissue/Cell Total Protein Extraction Reagent. The protein concentration was measured using the BCA protein assay kit. 30 µg of protein was taken and mixed with 5× SDS-PAGE loading buffer, boiled for 10 minutes, and cooled. The samples were loaded into wells of a precast gel, with constant voltage at 80 V for 30 minutes, and then the voltage was changed to 120 V after the samples entered the resolving gel. The "sandwich" (sponge - filter paper - gel - membrane - filter paper - sponge) was assembled for Bio-Rad's Transblot. Transfer was performed for 1 hour at 0.3 amp at 4 °C. The sample was blocked with 5% fat-free milk for 1 hour, and incubated with Estrogen Receptor alpha Antibody (Thermo Fisher, catalog number MA5-14104) overnight at 4 °C. The membrane was washed with TBST to remove non-specifically bound antibodies, and then incubated with goat anti-mouse IgG-HRP secondary antibody for 1 hour at room temperature, and was visualized using ECL. The protein degradation level was calculated by measuring the grayscale intensity.
The DC50 values (i.e., the concentration of the test compounds required to degrade 50% of the target protein) were calculated and shown in Table 1. A corresponds to a DC50 value below 10 nM, B corresponds to a DC50 value greater than 10 nM and less than 100 nM, and C corresponds to DC50 values greater than 100 nM. Table 1. The DC50 values of exemplary compounds in MCF-7 cells

Structure (SMILES)	DC50 [nM]
CC1(C)CC(=C(c2ccc(N3CCC(CN4CCN(c5ccc6c(c5)CN(C5CCC(=O)NC5=O)C6=O)CC4)CC3)nc2)c2ccc3c(F)n[nH]c3c2)CC(C)(C)O1 (stereo not shown) [Compound 112]	10 to 100
CC1(C)CC(=C(c2ccc3[nH]nc(F)c3c2)c2c(F)cc(N3CCN(CC4CN(c5ccc6c(c5)C(=O)N(C5CCC(=O)NC5=O)C6=O)C4)CC3)cc2F)CC(C)(C)O1 (stereo not shown) [Compound 9]	> 100
CC1(C)CC(=C(c2ccc(OC3CN(C4CN(c5ccc6c(c5)C(=O)N(C5CCC(=O)NC5=O)C6=O)C4)C3)cc2)c2ccc3[nH]nc(F)c3c2)CC(C)(C)O1 (stereo not shown) [Compound 21]	> 100
CC1(C)CC(=C(c2ccc(OC3CN(CC4CN(c5ccc6c(c5)C(=O)N(C5CCC(=O)NC5=O)C6=O)C4)C3)cc2)c2ccc3[nH]nc(F)c3c2)CC(C)(C)O1 (stereo not shown) [Compound 32]	> 100
CC1(C)CC(=C(c2ccc(OCCN3CCN(c4ccc5c(c4)C(=O)N(C4CCC(=O)NC4=O)C5=O)CC3)nc2)c2ccc3[nH]nc(F)c3c2)CC(C)(C)O1 (stereo not shown) [Compound 28]	> 100
CC1(C)CC(=C(c2ccc3[nH]nc(F)c3c2)c2c(F)cc(N3CCN(CC4CCN(c5ccc6c(c5)C(=O)N(C5CCC(=O)NC5=O)C6=O)CC4)CC3)cc2F)CC(C)(C)O1 (stereo not shown) [Compound 102]	> 100
CC1(C)CC(=C(c2ccc(N3CCC4(CC3)CC(N3CCC(c5ccc6c(c5)CN(C5CCC(=O)NC5=O)C6=O)CC3)C4)nc2)c2ccc3[nH]nc(F)c3c2)CC(C)(C)O1 (stereo not shown) [Compound 63]	> 100
CC1(C)CC(=C(c2ccc(OC3CN(C4CN(c5ccc6c(c5)C(=O)N(C5CCC(=O)NC5=O)C6=O)C4)C3)nc2)c2ccc3[nH]nc(F)c3c2)CC(C)(C)O1 (stereo not shown) [Compound 19]	> 100
CC1(C)CC(=C(c2ccc3[nH]nc(F)c3c2)c2c(F)cc(N3CCC(CN4CCN(c5ccc6c(c5)CN(C5CCC(=O)NC5=O)C6=O)CC4)CC3)cc2F)CC(C)(C)O1 (stereo not shown) [Compound 55]	> 100
CC1(C)CC(=C(c2ccc(N3CCC4(CN(C(=O)CN5Cc6cc7c(cc6C5)C(=O)N(C5CCC(=O)NC5=O)C7)C4)C3)nc2)c2ccc3[nH]nc(F)c3c2)CC(C)(C)O1 (stereo not shown) [Compound 72]	> 100
CC1(C)CC(=C(c2ccc(N3CCC4(CC3)CN(C(=O)CN3Cc5cc6c(cc5C3)C(=O)N(C3CCC(=O)NC3=O)C6=O)C4)nc2)c2ccc3[nH]nc(F)c3c2)CC(C)(C)O1 (stereo not shown) [Compound 74]	> 100
Cn1nc(N2CCC(=O)NC2=O)c2ccc(C3CCN(CC(=O)N4CC5(C4)CN(c4ccc(C(=C6CC(C)(C)OC(C)(C)C6)c6ccc7[nH]nc(F)c7c6)cn4)C5)CC3)cc21 [Compound 95]	> 100
CN(CC1CCN(c2ccc(C(=C3CC(C)(C)OC(C)(C)C3)c3ccc4[nH]nc(F)c4c3)cn2)CC1)C1CCN(c2ccn3c(N4CCC(=O)NC4=O)cnc3c2)CC1 [Compound 98]	> 100
CC1(C)CC(=C(c2ccc3[nH]nc(F)c3c2)c2c(F)cc(OCCN3CCN(c4ccc5c(c4)C(=O)N(C4CCC(=O)NC4=O)C5=O)CC3)cc2F)CC(C)(C)O1 (stereo not shown) [Compound 23]	> 100
CC1(C)CC(=C(c2ccc(N3CCC4(CC3)CN(C3CCN(c5ccc6c(c5)CN([C@@H]5CCC(=O)NC5=O)C6=O)CC3)C4)nc2)c2ccc3[nH]nc(F)c3c2)CC(C)(C)O1 [Compound 140]	< 10
CC1(C)CC(=C(c2ccc(N3CCC4(CC3)CC(N3CC5(CN(c6ccc7c(c6)CN(C6CCC(=O)NC6=O)C7=O)C5)C3)C4)nc2)c2ccc3[nH]nc(F)c3c2)CC(C)(C)O1 (stereo not shown) [Compound 43]	> 100
CC1(C)CC(=C(c2ccc(N3CCC(CN4CCN(c5ccc(NC6CCC(=O)NC6=O)cc5)CC4)CC3)cc2)c2ccc3[nH]nc(F)c3c2)CC(C)(C)O1 (stereo not shown) [Compound 87]	> 100
CC1(C)CC(=C(c2ccc(N3CCN(C4CC5(CCN(c6ccc7c(c6)CN(C6CCC(=O)NC6=O)C7=O)C5)C4)CC3)nc2)c2ccc3[nH]nc(F)c3c2)CC(C)(C)O1 (stereo not shown) [Compound 53]	> 100
CC1(C)CC(=C(c2ccc(N3CCC(CN4CCN(c5ccc6c(c5)C(=O)N(C5CCC(=O)NC5=O)C6=O)CC4)CC3)nc2)c2ccc3[nH]nc(F)c3c2)CC(C)(C)O1 (stereo not shown) [Compound 103]	10 to 100
CC1(C)CC(=C(c2ccc(N3CC4C(CN5CCN(c6ccc7c(c6)CN(C6CCC(=O)NC6=O)C7=O)CC5)C4C3)nc2)c2ccc3[nH]nc(F)c3c2)CC(C)(C)O1 (stereo not shown) [Compound 51]	> 100
Cn1nc(N2CCC(=O)NC2=O)c2ccc(C3CCN(CC(=O)N4CCN(c5ccc(C(=C6CC(C)(C)OC(C)(C)C6)c6ccc7[nH]nc(F)c7c6)cn5)CC4)CC3)cc21 [Compound 92]	> 100
Cn1nc(N2CCC(=O)NC2=O)c2ccc(C3CCN(CC(=O)N4CC5(C4)CN(c4ccc(C(=C6CC(C)(C)OC(C)(C)C6)c6ccc7[nH]nc(F)c7c6)cn4)C5)CC3(F)F)cc21 (stereo not shown) [Compound 94]	> 100

More lines, now with the values ahead:

DC50 [nM]	Structure (SMILES)
10 to 100	CC1(C)CC(=C(c2ccc(N3CCC(F)(CNC4CCN(c5ccc6c(c5)CN([C@H]5CCC(=O)NC5=O)C6=O)CC4)CC3)nc2)c2ccc3[nH]nc(F)c3c2)CC(C)(C)O1 [Compound 143]
10 to 100	CC1(C)CC(=C(c2ccc3[nH]nc(F)c3c2)c2c(F)cc(N3CC(CN4CCN(c5ccc6c(c5)C(=O)N(C5CCC(=O)NC5=O)C6=O)CC4)C3)cc2F)CC(C)(C)O1 (stereo not shown) [Compound 15]
> 100	CC1(C)CC(=C(c2ccc(N3CC(CN4CCN(c5ccc6c(c5)C(=O)N(C5CCC(=O)NC5=O)C6=O)CC4)C3)cc2)c2ccc3[nH]nc(F)c3c2)CC(C)(C)O1 (stereo not shown) [Compound 17]
< 10	CC1(C)CC(=C(c2ccc(N3CCC(CN4CCN(c5ccc6c(c5)CN([C@H]5CCC(=O)NC5=O)C6=O)CC4)CC3)nc2)c2ccc3[nH]ncc3c2)CC(C)(C)O1 [Compound 137]
10 to 100	CC1(C)CC(=C(c2ccc(N3CCC4(CC3)CC(N3CCN(c5ccc(C(=O)N[C@H]6CCC(=O)NC6=O)c(F)c5)CC3)C4)nc2)c2ccc3[nH]nc(F)c3c2)CC(C)(C)O1 [Compound 123]
< 10	CC1(C)CC(=C(c2ccc(N3CCC4(CC3)CC(N3CCN(c5ccc(C(=O)N[C@H]6CCC(=O)NC6=O)cc5)CC3)C4)nc2)c2ccc3[nH]nc(F)c3c2)CC(C)(C)O1 [Compound 127]
10 to 100	CC1(C)CC(=C(c2ccc(N3CCC4(CC3)CC(N3CCN(c5ccc(C(=O)N[C@H]6CCC(=O)NC6=O)nc5)CC3)C4)nc2)c2ccc3[nH]nc(F)c3c2)CC(C)(C)O1 [Compound 129]
10 to 100	CC1(C)CC(=C(c2ccc(N3CCC(CN4CCN(c5ccc(C(=O)N[C@H]6CCC(=O)NC6=O)nc5)CC4)CC3)nc2)c2ccc3[nH]nc(F)c3c2)CC(C)(C)O1 [Compound 128]
10 to 100	CC1(C)CC(=C(c2ccc(N3CC4(CCN(C5CCN(c6ccc7c(c6)CN([C@H]6CCC(=O)NC6=O)C7=O)CC5)CC4)C3)nc2)c2ccc3[nH]nc(F)c3c2)CC(C)(C)O1 [Compound 139]
10 to 100	Cn1nc(N2CCC(=O)NC2=O)c2cc(F)c(N3CCN(CC4CCN(c5ccc(C(=C6CC(C)(C)OC(C)(C)C6)c6ccc7[nH]nc(F)c7c6)cn5)CC4)CC3)cc21 [Compound 124]
< 10	CC1(C)CC(=C(c2ccc(N3CCC(CN4CCN(c5ccc6c(c5)CN(C5CCC(=O)NC5=O)C6=O)CC4)CC3)nc2)c2ccc3[nH]ncc3c2)CC(C)(C)O1 (stereo not shown) [Compound 39]
< 10	CC1(C)CC(=C(c2ccc(N3CCC(F)(CNC4CCN(c5ccc6c(c5)CN([C@@H]5CCC(=O)NC5=O)C6=O)CC4)CC3)nc2)c2ccc3[nH]nc(F)c3c2)CC(C)(C)O1 [Compound 142]
